PMC6887759, “The C-Type Lysozyme from the upper Gastrointestinal Tract of Opisthocomus hoatzin, the Stinkbird” (International Journal of Molecular Sciences, 2019)

Columns and labels:
[1] = target: T1, OhLys-kexB (E35A variant used for the ligand complexes) (Opisthocomus hoazin, UniProt Q91159, INS20KR/E54A); assay: X-ray crystallography, co-crystallisation; format: biochemical; details: added as chitohexaose; hydrolysed by residual activity, so only sugars in -1 to -3 (weak -4) seen; intact hexamer not observed; mature numbering
T1 construct: gene LYZ; mature enzyme, 126 residues in wild type, secreted from Aspergillus oryzae; Lys-Arg inserted between Glu1 and Ile2 (uncleaved kexB site), N-terminus EKRIIPRCELV; monomer in asymmetric unit

[2] = target: T1, OhLys-kexB (E35A variant used for the ligand complexes); assay: X-ray crystallography, co-crystallisation; format: binding; details: density essentially identical to the chitohexaose co-crystal, subsites -1 to -3 (poorly ordered -4); not fully refined; mature numbering

T1 sequence (Q91159 other isoform, or with tags, fused parts or gaps INS20KR/E54A): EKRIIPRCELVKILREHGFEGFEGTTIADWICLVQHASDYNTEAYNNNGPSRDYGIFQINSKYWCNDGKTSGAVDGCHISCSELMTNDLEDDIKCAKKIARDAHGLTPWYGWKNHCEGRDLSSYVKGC

| SMILES | X-ray crystallography, co-crystallisation [1] | X-ray crystallography, co-crystallisation [2] |
| --- | --- | --- |
| CC(=O)N[C@H]1[C@H](O[C@H]2[C@H](O)[C@@H](NC(C)=O)[C@H](O[C@H]3[C@H](O)[C@@H](NC(C)=O)C(O)O[C@@H]3CO)O[C@@H]2CO)O[C@H](CO)[C@@H](O[C@@H]2O[C@H](CO)[C@@H](O[C@@H]3O[C@H](CO)[C@@H](O[C@@H]4O[C@H](CO)[C@@H](O)[C@H](O)[C@H]4NC(C)=O)[C@H](O)[C@H]3NC(C)=O)[C@H](O)[C@H]2NC(C)=O)[C@@H]1O (some centres unmarked) [chitohexaose] | hydrolyse; at the high protein concentrations of a prolonged crystallization, the chitohexaose substrate | – |
| CC(=O)N[C@H]1[C@H](O[C@H]2[C@H](O)[C@@H](NC(C)=O)C(O)O[C@@H]2CO)O[C@H](CO)[C@@H](O[C@@H]2O[C@H](CO)[C@@H](O[C@@H]3O[C@H](CO)[C@@H](O)[C@H](O)[C@H]3NC(C)=O)[C@H](O)[C@H]2NC(C)=O)[C@@H]1O (some centres unmarked) [chitotetraose] | – | The density for the chitotetraose ligand is essentially identical to this |
